Data reported in US11465981B2, “Heterocyclic compounds as immunomodulators” (Incyte Corporation, priority 2016, dated 2022).

Target: PD-1/PD-L1 protein/protein interaction (Homo sapiens (Human), UniProt Q9NZQ7)
Experiment: PD-1/PD-L1 Homogeneous Time-Resolved Fluorescence (HTRF) Binding Assay
Details: recombinant human PD-1 (Fc tag) 3 nM, human PD-L1 (His-tag) 10 nM, 25° C., PBS pH 7.4
Procedure: Example A. PD-1/PD-L1 Homogeneous Time-Resolved Fluorescence (HTRF) Binding Assay
The assays were conducted in a standard black 384-well polystyrene plate with a final volume of 20 μL. Inhibitors were first serially diluted in DMSO and then added to the plate wells before the addition of other reaction components. The final concentration of DMSO in the assay was 1%. The assays were carried out at 25° C. in the PBS buffer (pH 7.4) with 0.05% Tween-20 and 0.1% BSA. Recombinant human PD-L1 protein (19-238) with a His-tag at the C-terminus was purchased from AcroBiosystems (PD1-H5229). Recombinant human PD-1 protein (25-167) with Fc tag at the C-terminus was also purchased from AcroBiosystems (PD1-H5257). PD-L1 and PD-1 proteins were diluted in the assay buffer and 10 μL was added to the plate well. Plates were centrifuged and proteins were preincubated with inhibitors for 40 minutes. The incubation was followed by the addition of 10 μL of HTRF detection buffer supplemented with Europium cryptate-labeled anti-human IgG (PerkinElmer-AD0212) specific for Fc and anti-His antibody conjugated to SureLight®-Allophycocyanin (APC, PerkinElmer-AD0059H). After centrifugation, the plate was incubated at 25° C. for 60 min. before reading on a PHERAstar FS plate reader (665 nm/620 nm ratio). Final concentrations in the assay were […], 10 nM PD-L1, 1 nM europium anti-human IgG and 20 nM anti-His-Allophycocyanin. IC50 determination was performed by fitting the curve of percent control activity versus the log of the inhibitor concentration using the GraphPad Prism 5.0 software.

Chain of PD-1/PD-L1 protein/protein interaction (Q9NZQ7 19-238): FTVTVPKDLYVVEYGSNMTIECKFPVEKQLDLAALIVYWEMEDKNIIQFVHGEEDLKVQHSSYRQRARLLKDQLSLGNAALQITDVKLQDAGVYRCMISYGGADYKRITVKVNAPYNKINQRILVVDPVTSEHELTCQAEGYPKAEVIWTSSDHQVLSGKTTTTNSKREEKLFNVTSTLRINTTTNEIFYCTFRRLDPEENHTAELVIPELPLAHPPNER

Row | Compound | IC50 [nM]
1 | Cc1c(NC(=O)c2ccc(CNCCO)cn2)cccc1-c1cccc(NC(=O)c2ccc(CNCCO)cn2)c1Cl [Example 1, N,N′-(2-chloro-2′-methylbiphenyl-3,3′-diyl)bis(5-((2-hydroxyethylamino)methyl)picolinamide)] | ≤ 10
2 | Cc1cc(C(=O)Nc2cccc(-c3cccc(NC(=O)c4ccc(CN5CCCC5)cn4)c3Cl)c2C)ncc1CN1CCCC[C@H]1C(=O)O [Example 12, (S)-1-((6-((2′-chloro-2-methyl-3′-(5-(pyrrolidin-1-ylmethyl)picolinamido)-[1,1′-biphenyl]-3-yl)carbamoyl)-4-methylpyridin-3-yl)methyl)piperidine-2-carboxylic acid] | ≤ 10
3 | Cc1c(NC(=O)c2ccc(CN3CCCC[C@H]3C(=O)O)cn2)cccc1-c1cccc(NC(=O)c2ccc(CNCCO)cn2)c1Cl [Example 7, (S)-1-((6-(2′-chloro-3′-(5-((2-hydroxyethylamino)methyl)picolinamido)-2-methylbiphenyl-3-ylcarbamoyl)pyridin-3-yl)methyl)piperidine-2-carboxylic Acid] | ≤ 10
4 | O=C(Nc1cccc(-c2cccc(NC(=O)c3nc4c(s3)CNCC4)c2F)c1Cl)c1ccc(CN2CCCC[C@H]2C(=O)O)cn1 [Example 11, (S)-1-((6-((2-chloro-2′-fluoro-3′-(4,5,6,7-tetrahydrothiazolo[5,4-c]pyridine-2-carboxamido)-[1,1′-biphenyl]-3-yl)carbamoyl)pyridin-3-yl)methyl)piperidine-2-carboxylic Acid] | ≤ 10
5 | Cc1c(NC(=O)c2ccc(CN3CCOC3=O)cn2)cccc1-c1cccc(NC(=O)c2ccc(CNCCO)cn2)c1Cl [Example 5, N-(2-chloro-2′-methyl-3′-(5-((2-oxooxazolidin-3-yl)methyl)picolinamido)biphenyl-3-yl)-5-((2-hydroxyethylamino)methyl)picolinamide] | ≤ 10
6 | Cc1c(NC(=O)c2ccc(CN3CCCC[C@H]3C(=O)O)cn2)cccc1-c1cccc(NC(=O)c2ccc(CN3CCCC[C@H]3C(=O)O)cn2)c1Cl [Example 2, (2S,2'S)-1,1′-(6,6′-(2-chloro-2′-methylbiphenyl-3,3′-diyl)bis(azanediyl)bis(oxomethylene)bis(pyridine-6,3-diyl))bis(methylene)dipiperidine-2-carboxylic Acid] | ≤ 10
7 | Cc1c(NC(=O)c2ccc(CN3CC[C@H](C(=O)O)C3)cn2)cccc1-c1cccc(NC(=O)c2ccc(CN3CC[C@@H](O)C3)cn2)c1Cl [Example 8, (S)-1-((6-(2′-chloro-3′-(5-(((R)-3-hydroxypyrrolidin-1-yl)methyl)picolinamido)-2-methylbiphenyl-3-ylcarbamoyl)pyridin-3-yl)methyl)pyrrolidine-3-carboxylic Acid] | ≤ 10

The remaining lines, values ahead:

Row | IC50 [nM] | Compound
8 | ≤ 10 | Cc1c(NC(=O)c2ccc(CN3CCN(C)C3=O)cn2)cccc1-c1cccc(NC(=O)c2ccc(CN3CC[C@@H](O)C3)cn2)c1Cl [Example 4, (R)—N-(2-chloro-2′-methyl-3′-(5-((3-methyl-2-oxoimidazolidin-1-yl)methyl)picolinamido)biphenyl-3-yl)-5-((3-hydroxypyrrolidin-1-yl)methyl)picolinamide]
9 | ≤ 10 | Cc1c(NC(=O)c2ccc(CN3CCOC3=O)cn2)cccc1-c1cccc(NC(=O)c2ccc(CN3CC[C@@H](O)C3)cn2)c1Cl [Example 6, (R)—N-(2-chloro-2′-methyl-3′-(5-((2-oxooxazolidin-3-yl)methyl)picolinamido)biphenyl-3-yl)-5-((3-hydroxypyrrolidin-1-yl)methyl)picolinamide]
10 | ≤ 10 | Cc1c(NC(=O)c2ccc(CN3CC(C(=O)O)C3)cn2)cccc1-c1cccc(NC(=O)c2ccc(CN3CC[C@@H](O)C3)cn2)c1Cl [Example 10, (R)-1-((6-(2′-chloro-3′-(5-((3-hydroxypyrrolidin-1-yl)methyl)picolinamido)-2-methylbiphenyl-3-ylcarbamoyl)pyridin-3-yl)methyl)azetidine-3-carboxylic Acid]
11 | ≤ 10 | Cc1c(NC(=O)c2ccc(CN3CCC(C(=O)O)CC3)cn2)cccc1-c1cccc(NC(=O)c2ccc(CN3CC[C@@H](O)C3)cn2)c1Cl [Example 9, (R)-1-((6-(2′-chloro-3′-(5-((3-hydroxypyrrolidin-1-yl)methyl)picolinamido)-2-methylbiphenyl-3-ylcarbamoyl)pyridin-3-yl)methyl)piperidine-4-carboxylic Acid]
12 | ≤ 10 | COc1ccnc(C(=O)Nc2cccc(-c3cccc(NC(=O)c4cc(C)c(CN5CCCC[C@H]5C(=O)O)cn4)c3Cl)c2C)c1 [Example 13, (S)-1-((6-((2-chloro-3′-(4-methoxypicolinamido)-2′-methyl-[1,1′-biphenyl]-3-yl)carbamoyl)-4-methylpyridin-3-yl)methyl)piperidine-2-carboxylic Acid]
13 | ≤ 10 | Cc1c(NC(=O)c2ccc(CN3CCN(C)C3=O)cn2)cccc1-c1cccc(NC(=O)c2ccc(CNCCO)cn2)c1Cl [Example 3, N-(2-chloro-2′-methyl-3′-(5-((3-methyl-2-oxoimidazolidin-1-yl)methyl)picolinamido)biphenyl-3-yl)-5-((2-hydroxyethylamino)methyl)picolinamide]
